Calls of active or inactive are those of the source. The calls are words filed in the database; no cut-off is given here.
Experiments:
[1] = test system: MCF7; test: Cytotoxicity against human MCF7 cells after 24 hrs by MTT assay; type: functional, cell-based; conditions: MCF7, 24 h
[2] = target: T1, Eukaryotic elongation factor 2 kinase (Homo sapiens) (UniProt O00418); test: Inhibition of GST-tagged EEF2K (unknown origin) at 20 uM using biotinylated EEF2 peptide substrate by HTRF assay relative to control
T1 sequence (whole entry): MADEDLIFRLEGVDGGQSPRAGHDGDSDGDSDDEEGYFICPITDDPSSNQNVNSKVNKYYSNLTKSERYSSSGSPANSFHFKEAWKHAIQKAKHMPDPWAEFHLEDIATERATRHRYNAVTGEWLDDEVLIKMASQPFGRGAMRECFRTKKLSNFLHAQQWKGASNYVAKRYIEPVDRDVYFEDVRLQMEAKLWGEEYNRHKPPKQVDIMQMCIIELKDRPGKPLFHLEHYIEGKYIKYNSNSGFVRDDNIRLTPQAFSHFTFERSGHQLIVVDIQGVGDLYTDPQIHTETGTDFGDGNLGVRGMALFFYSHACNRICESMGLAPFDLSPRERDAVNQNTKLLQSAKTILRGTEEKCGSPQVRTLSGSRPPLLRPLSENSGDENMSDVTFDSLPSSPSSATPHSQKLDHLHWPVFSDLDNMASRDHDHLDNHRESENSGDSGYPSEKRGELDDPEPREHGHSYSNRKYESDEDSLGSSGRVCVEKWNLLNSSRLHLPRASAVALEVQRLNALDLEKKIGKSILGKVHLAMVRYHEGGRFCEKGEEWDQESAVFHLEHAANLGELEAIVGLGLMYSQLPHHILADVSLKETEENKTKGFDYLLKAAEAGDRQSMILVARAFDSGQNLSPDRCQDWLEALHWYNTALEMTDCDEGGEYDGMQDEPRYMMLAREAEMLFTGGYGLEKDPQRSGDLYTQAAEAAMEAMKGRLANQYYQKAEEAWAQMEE

[3] = test system: BT-483; test: Cytotoxicity against human BT-483 cells after 24 hrs by MTT assay; type: functional, cell-based; conditions: BT-483, 24 h
[4] = target: Serine/threonine-protein kinase PLK1 (Homo sapiens, UniProt P53350); test: Inhibition of full length human PLK1 at 20 uM using casein as substrate after 40 mins in presence of [gamma-33P]-ATP by radiometric assay relative to control
[5] = test system: MDA-MB-231; test: Cytotoxicity against human MDA-MB-231 cells after 24 hrs by MTT assay; type: functional, cell-based
[6] = test system: BT-474; test: Cytotoxicity against human BT474 cells after 24 hrs by MTT assay; type: functional, cell-based
[7] = test system: SK-BR-3; test: Cytotoxicity against human SKBR3 cells after 24 hrs by MTT assay; type: functional, cell-based
[8] = test system: ZR-75-1; test: Cytotoxicity against human ZR-75-1 cells after 24 hrs by MTT assay; type: functional, cell-based
[9] = test system: MDA-MB-468; test: Cytotoxicity against human MDA-MB-468 cells after 24 hrs by MTT assay; type: functional, cell-based

Sequence of Serine/threonine-protein kinase PLK1 (P53350 whole entry): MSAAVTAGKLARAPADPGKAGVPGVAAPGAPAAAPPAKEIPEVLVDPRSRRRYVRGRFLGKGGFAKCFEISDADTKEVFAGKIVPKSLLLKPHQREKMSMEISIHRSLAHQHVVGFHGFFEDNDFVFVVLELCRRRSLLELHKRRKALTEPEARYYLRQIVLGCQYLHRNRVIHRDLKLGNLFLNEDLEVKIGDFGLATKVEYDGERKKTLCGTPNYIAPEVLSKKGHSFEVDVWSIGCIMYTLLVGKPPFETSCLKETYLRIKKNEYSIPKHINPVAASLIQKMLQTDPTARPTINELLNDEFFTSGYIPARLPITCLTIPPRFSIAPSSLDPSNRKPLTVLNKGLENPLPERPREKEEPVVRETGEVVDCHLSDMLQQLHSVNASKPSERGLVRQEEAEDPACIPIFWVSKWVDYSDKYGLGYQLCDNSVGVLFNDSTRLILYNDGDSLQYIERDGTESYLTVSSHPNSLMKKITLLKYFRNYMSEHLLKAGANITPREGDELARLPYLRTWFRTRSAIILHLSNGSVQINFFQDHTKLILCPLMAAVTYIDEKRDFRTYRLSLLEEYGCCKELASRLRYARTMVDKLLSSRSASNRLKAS

inhibition [2] | inhibition [4] | Structure (SMILES) | IC50 [1] | IC50 [3] | Activity [5] | Activity [6] | Activity [7] | Activity [8] | Activity [9]
37.2% | 66.1% | CCNc1cc(-c2ccc(NC(=O)Nc3cc(C(F)(F)F)cc(C(F)(F)F)c3)cc2C(F)(F)F)ccn1 | 5.96 µM | > 30 µM |  |  |  |  | 
33.4% | 45.8% | CCNc1cc(-c2ccc(NC(=O)Nc3ccc(OC)cc3)cc2C)ccn1 | 9.95 µM | 25.8 µM |  |  |  |  | 
38.2% | 63% | CCCNc1cc(-c2ccc(NC(=O)Nc3cccc(Cl)c3)cc2C(F)(F)F)ccn1 | 8.23 µM | 18.5 µM |  |  |  |  | 
35.4% | 47.5% | CCNc1cc(-c2ccc(NC(=O)Nc3ccc(C)cc3)cc2C)ccn1 | 9.21 µM | 22 µM |  |  |  |  | 
44% | 59.2% | CCNc1cc(-c2ccc(NC(=O)Nc3c(C)cccc3C)cc2C(F)(F)F)ccn1 | 6.95 µM | 22 µM |  |  |  |  | 
33.3% | 51.3% | CCCNc1cc(-c2ccc(NC(=O)Nc3ccc(C(F)(F)F)cc3)cc2C(F)(F)F)ccn1 | 7.68 µM | 18.8 µM |  |  |  |  | 
-4.29% | 54.1% | CCNc1cc(-c2ccc(NC(=O)Nc3cccc4ccccc34)cc2C(F)(F)F)ccn1 | 16.3 µM | > 30 µM |  |  |  |  | 
53.6% | 71.6% | CCNc1cc(-c2ccc(NC(=O)Nc3ccccc3Cl)cc2C(F)(F)F)ccn1 | 3.68 µM | 20.8 µM |  |  |  |  | 
52.5% | 72.7% | CCNc1cc(-c2ccc(NC(=O)Nc3cccc(Cl)c3)cc2F)ccn1 | 6.94 µM | 18.5 µM |  |  |  |  | 
6.4% | 53.6% | CCNc1cc(-c2ccc(NC(=O)Nc3ccccc3Cl)cc2OC)ccn1 | 9.94 µM | > 30 µM |  |  |  |  | 
76.3% | 82.9% | CCNc1cc(-c2ccc(NC(=O)Nc3ccc(C(F)(F)F)cc3)cc2C(F)(F)F)ccn1 | 2.39 µM | 16.4 µM |  |  |  |  | 
34.4% | 47.1% | CCNc1cc(-c2ccc(NC(=O)Nc3ccc(OC)cc3)cc2F)ccn1 | 14.1 µM | 19.6 µM |  |  |  |  | 
51.3% | 62.1% | CCNc1cc(-c2ccc(NC(=O)Nc3ccc(OC)cc3)cc2C(F)(F)F)ccn1 | 5.74 µM | 17.6 µM |  |  |  |  | 
15.1% | 53.4% | O=C(Nc1ccc(C(F)(F)F)cc1)Nc1ccc(-c2ccnc(NCC3CC3)c2)c(C(F)(F)F)c1 | 15.6 µM | > 30 µM |  |  |  |  | 
30.6% | 46.4% | CCNc1cc(-c2ccc(NC(=O)Nc3cccc(Cl)c3)cc2OC)ccn1 | 7.46 µM | 25.3 µM |  |  |  |  | 
21.7% | 49.2% | CCNc1cc(-c2ccc(NC(=O)Nc3ccccc3Cl)cc2C)ccn1 | 8.35 µM | > 30 µM |  |  |  |  | 
 |  | CC[C@@H]1C(=O)N(C)c2cnc(Nc3ccc(C(=O)NC4CCC(N5CCN(CC6CC6)CC5)CC4)cc3OC)nc2N1C(C)C (some centres not stated) |  |  | Active | Active | Active | Active | Active
73.4% | 82.7% | CCNc1cc(-c2ccc(NC(=O)Nc3cccc(Cl)c3)cc2C)ccn1 | 4.18 µM | 16.6 µM |  |  |  |  | 
55.3% | 54.8% | CCNc1cc(-c2ccc(NC(=O)Nc3ccc(C(F)(F)F)cc3)cc2C)ccn1 | 6.87 µM | 19.7 µM |  |  |  |  | 
 | 54.4% | CCNc1cc(-c2ccc(NC(=O)Nc3c(C)cccc3C)cc2OC)ccn1 | 9.26 µM | > 30 µM |  |  |  |  | 
27.8% | 63.8% | O=C(Nc1cccc(Cl)c1)Nc1ccc(-c2ccnc(NCC3CC3)c2)c(C(F)(F)F)c1 | 17.4 µM | > 30 µM |  |  |  |  | 
 | 35.3% | CCNc1cc(-c2ccc(NC(=O)Nc3cccc4ccccc34)cc2C)ccn1 | 15.5 µM | > 30 µM |  |  |  |  | 
8.7% | 42.1% | CCNc1cc(-c2ccc(NC(=O)Nc3c(C)cccc3C)cc2C)ccn1 | 7.92 µM | > 30 µM |  |  |  |  | 
37.9% | 42.6% | CCNc1cc(-c2ccc(NC(=O)Nc3ccc(C)cc3)cc2C(F)(F)F)ccn1 | 9.47 µM | 27.1 µM |  |  |  |  | 
34.6% | 40.7% | CCNc1cc(-c2ccc(NC(=O)Nc3ccc(C(F)(F)F)cc3)cc2OC)ccn1 | 19.5 µM | 25.6 µM |  |  |  |  | 
9% | 31.1% | CCNc1cc(-c2ccc(NC(=O)Nc3ccc(OC)cc3)cc2OC)ccn1 | 17.5 µM | > 30 µM |  |  |  |  | 
41.2% | 55.8% | CCNc1cc(-c2ccc(NC(=O)Nc3ccc(C(F)(F)F)cc3)cc2F)ccn1 | 8.02 µM | 26.8 µM |  |  |  |  | 

From ChEMBL document CHEMBL4251622, “Design, synthesis, and biological evaluation of polo-like kinase 1/eukaryotic elongation factor 2 kinase (PLK1/EEF2K) dual inhibitors for regulating breast cancer cells apoptosis and autophagy” (Eur J Med Chem, 2018)
